Values quoted from earlier work in patent US8431806B2, “Liposomal formulations of anthracycline agents and cytidine analogs” (Celator Pharmaceuticals, Inc., priority 2004, dated 2013).

Conditions: in vivo

half-life for elimination: 19 h | oral absorption (po): low
SMILES: COc1cccc2c1C(=O)c1c(O)c3c(c(O)c1C2=O)C[C@@](O)(C(C)=O)C[C@@H]3O[C@H]1C[C@H](N)[C@H](O)[C@H](C)O1 [Daunorubicin]
